Test results taken from patent US10647699B2, “Substituted 2-oxyimidazolylcarboxamides as pesticides” (Bayer CropScience Aktiengesellschaft, priority 2016, dated 2020).
Where two headings read alike, the source gives them in different places.

Legend:
[1] = log P by HPLC on reversed-phase columns (OECD Guideline 117), neutral range; format: physicochemical; conditions: for chromatographic logP: reversed-phase (C18) HPLC column
Myzus persicae [2] = experiment: Myzus persicae oral test (MYZUPE O); format: in vivo; conditions: for efficacy: after 5 days; for Emax at 0.8 ppm / Emax at 4 ppm: read-out: % efficacy
Description: Solvent: 100 parts by weight of acetone
(§1) To produce a suitable preparation of active compound, 1 part by weight of active compound is dissolved using the specified parts by weight of solvent and made up with water until the desired concentration is attained.
50 μl of the active compound preparation are transferred into microtitre plates and made up to a final volume of 200 μl with 150 μl of IPL41 insect medium (33%+15% sugar). Subsequently, the plates are sealed with parafilm, which a mixed population of green peach aphids (Myzus persicae) within a second microtitre plate is able to puncture and imbibe the solution through it.
After 5 days, the efficacy in % is determined. 100% means that all the aphids have been killed; 0% means that no aphids have been killed.
Myzus persicae—Oral Test (MYZUPE O)
After 5 or 6 days (dat), the efficacy in % is determined. 100% means that all the aphids have been killed; 0% means that no aphids have been killed.

Myzus persicae [3] = experiment: Myzus persicae spray test (MYZUPE), Chinese cabbage leaf discs; format: in vivo; conditions: for Emax at 100 g/ha: read-out: % efficacy
Description: Myzus persicae—Spray Test
as §1, with “water containing an emulsifier concentration of 1000 ppm” for “water”, “attained. To produce further test concentrations, the formulation is diluted with emulsifier-containing water.” for “attained.”
Discs of Chinese cabbage leaves (Brassica pekinensis) infested by all stages of the green peach aphid (Myzus persicae) are sprayed with an active compound formulation of the desired concentration.
After 5 or 6 days, the efficacy in % is determined. 100% means that all the aphids have been killed; 0% means that no aphids have been killed.
Myzus persicae—Spray Test (MYZUPE)
Discs of Chinese cabbage leaves (Brassica pekinensis) infested by all stages of the green peach aphid (Myzus persicae) are sprayed with an active compound preparation of the desired concentration.
After the desired period of time, the efficacy in % is determined. 100% means that all the aphids have been killed; 0% means that no aphids have been killed.

[4] = after 5 days, application rate 500 g/ha
[5] = Myzus persicae, po, 120 h, MYZUPE O, 0.8 ppm, 5 dat
[6] = Myzus persicae, po, 120 h, MYZUPE O, 4 ppm, 5 dat

LogP-neutral ([1]; pH 7.8)	Structure (SMILES)	efficacy (Myzus persicae [2]; application rate 20 ppm)	efficacy (Myzus persicae [3]; [4])	other results
1.5	COc1ccc(Oc2ncc(C(=O)N(C)c3cccnc3)n2C)cn1 [Example II-39]	90%	90%	–
1.49	COc1cc(Oc2ncc(C(=O)N(C)c3cccnc3)n2C)cnc1OC [Example II-64]	–	100%	efficacy (Myzus persicae [2]; application rate 4 ppm): 100%
2.04	CON=Cc1cccc(Oc2ncc(C(=O)N(C)c3cccnc3)n2C)c1 [Example II-84]	100%	90%	–
1.28	COc1cncc(Oc2ncc(C(=O)N(C)c3cccnc3)n2C)c1 [Example II-60]	100%	90%	–
1.9	CN(C(=O)c1cnc(Oc2ccc(C(F)(F)F)nc2)n1C)c1cccnc1 [Example II-56]	100%	90%	–
1.63	CN(C(=O)c1cnc(Oc2ccc(Br)nc2)n1C)c1cccnc1 [Example II-61]	90%	100%	–
2.02	COc1ncc(Cl)cc1Oc1ncc(C(=O)N(C)c2cccnc2)n1C [Example II-70]	100%	90%	–
1.75	COc1cccc(Oc2ncc(C(=O)N(C)c3cccnc3)n2C)c1 [Example II-76]	–	–	–
0.53	CN(C(=O)c1cnc(OCc2ncccn2)n1C)c1cccnc1 [Example II-11]	–	–	–
0.9	CN(C(=O)c1cnc(OCC(F)(F)F)n1C)c1cccnc1 [Example II-96]	–	–	–
1.94	CN(C(=O)c1cnc(Oc2ccc(Oc3ccc(Cl)nc3)nc2)n1C)c1cccnc1 [Example II-69]	–	–	–

The next lines start with the compound.

Structure (SMILES)	LogP-neutral ([1]; pH 7.8)	efficacy (Myzus persicae [2]; application rate 20 ppm)	efficacy (Myzus persicae [3]; [4])	other results
Cn1c(C(=O)N(c2cccnc2)C2CC2)cnc1Oc1cccc(Cl)c1 [Example II-93]	–	100%	90%	LogP-neutral ([1]; HPLC, neutral range pH 7.8): 2.41
CCOc1ncc(C(=O)N(CC)c2cccnc2)n1C [Example II-48]	1.45	100%	90%	–
CN(C(=O)c1cnc(OCc2ccc(F)cc2)n1C)c1cccnc1 [Example II-18]	–	100%	–	efficacy (Myzus persicae [3]; after 6 days, application rate 500 g/ha): 100%
CN(C(=O)c1cnc(Oc2cncc(C#N)c2)n1C)c1cccnc1 [Example II-62]	–	100%	90%	LogP-neutral ([1]; HPLC, neutral range pH 7.8): 1.27
CC(C)Oc1ncc(C(=O)Nc2cccnc2)n1C [II-1-H]	–	–	–	log P[n] ([1]; pH 7.8): 1.61
Cn1c(C(=O)N(c2cccnc2)C2CC2)cnc1Oc1ccc(Cl)nc1 [Example II-90]	–	100%	–	LogP-neutral ([1]; HPLC, neutral range pH 7.8): 1.8; efficacy (Myzus persicae [3]; after 5 days, application rate 100 g/ha): 90%
CCN(C(=O)c1cnc(Oc2ccc(F)nc2)n1C)c1cccnc1 [Example II-95]	–	–	–	chromatographic logP ([1]; HPLC, neutral range pH 7.8, read-out: LogP-neutral): 1.55; Emax at 0.8 ppm (Myzus persicae [2]; Myzus persicae, po, 120 h): 100%; Emax at 4 ppm (Myzus persicae [2]; Myzus persicae, po, 120 h): 90%; pest or weed control at 20 ppm (Myzus persicae [2]; Myzus persicae, po, 120 h, read-out: efficacy): 100%; Emax at 100 g/ha (Myzus persicae [3]; Myzus persicae, foliar, 120 h): 100%; pest or weed control at 500 g/ha (Myzus persicae [3]; Myzus persicae, foliar, 120 h, read-out: efficacy): 100%
Cc1nc(C(=O)Nc2cccnc2)c[nH]1 [Comparative Ex. 1, reference compound]	–	–	–	Emax at 0.8 ppm (Myzus persicae [2]; [5]): 0%; Emax at 4 ppm (Myzus persicae [2]; [6]): 0%; Emax at 100 g/ha (Myzus persicae [3]; Myzus persicae, foliar, MYZUPE, 100 g of ai/ha, 5/6 dat): 0%
O=C(Nc1cccnc1)c1c[nH]cn1 [Comparative Ex. 2, reference compound]	–	–	–	Emax at 0.8 ppm (Myzus persicae [2]; [5]): 0%; Emax at 4 ppm (Myzus persicae [2]; [6]): 0%; Emax at 100 g/ha (Myzus persicae [3]; Myzus persicae, foliar, 144 h, MYZUPE, 100 g of ai/ha, 6 dat): 0%
Cc1ccc(Oc2ncc(C(=O)N(C)c3cccnc3)n2C)cc1Cl [Example II-85]	2.45	90%	100%	–
Cn1c(C(=O)Nc2cccnc2)c[nH]c1=O [VI-1-H]	–	–	–	log P[n] ([1]; pH 7.8): 0.1
CCN(C(=O)c1cnc(Oc2cncc(Cl)c2)n1C)c1cccnc1 [Example II-97]	2.03	–	–	–
CN(C(=O)c1cnc(Cl)n1C)c1cccnc1 [IX-1, 2-chloro-N, 1-dimethyl-N-(pyridin-3-yl)-1H-imidazole-5-carboxamide]	–	–	–	chromatographic logP ([1]; pH 7.8, HPLC-MS, neutral, read-out: log P[n]): 0.88
CN(C(=O)c1cnc(Oc2ccccn2)n1C)c1cccnc1 [Example II-16]	–	100%	–	LogP-neutral ([1]; HPLC, neutral range pH 7.8): 1.13
